According to patent US20170274001A1, “Compositions and Methods for Increasing Red Blood Cells” (Yale University, priority 2014, published 2017):
Entries after “also recorded” stand apart in the source; their conditions may differ.

Columns and labels:
[1] = target: T1, scavenger receptor B1 (Mus musculus, UniProt Q61009); assay: Clearance of infused human RBCs from peripheral blood of RGSKI mice after blocking scavenger receptor B1 (FIG. 4); assay type: in vivo; conditions: BLT-1 80 mg/kg body weight one hour before human RBC infusion, control DMSO
T1 construct: endogenous in cells; host or cells: RGSKI mice (whole animal, in vivo)
T1 sequence (Q61009 1-509): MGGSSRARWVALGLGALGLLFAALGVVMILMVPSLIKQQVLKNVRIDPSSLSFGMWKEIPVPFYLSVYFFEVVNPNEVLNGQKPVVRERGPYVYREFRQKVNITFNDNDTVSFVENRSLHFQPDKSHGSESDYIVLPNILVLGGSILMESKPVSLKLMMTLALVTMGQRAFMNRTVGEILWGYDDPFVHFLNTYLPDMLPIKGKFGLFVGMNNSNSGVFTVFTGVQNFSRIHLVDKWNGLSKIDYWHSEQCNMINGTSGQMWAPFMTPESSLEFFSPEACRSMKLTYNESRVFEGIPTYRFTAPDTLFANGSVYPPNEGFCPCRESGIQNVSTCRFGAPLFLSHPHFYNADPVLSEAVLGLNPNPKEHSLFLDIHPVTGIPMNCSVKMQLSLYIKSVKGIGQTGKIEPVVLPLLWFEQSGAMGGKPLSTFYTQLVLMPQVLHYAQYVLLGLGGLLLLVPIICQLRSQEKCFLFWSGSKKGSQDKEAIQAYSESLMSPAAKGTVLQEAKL
Method: RGSKI mice were treated with scavenger receptor B1 named BLT-1 (80 mg/kg body weight). One hour after treatment, mice were infused with human RBCs and peripheral blood was collected at indicated time points. Control: DMSO.

[2] = Navab et al., 2006; cited from earlier work
[3] = tested on: human RBCs; assay: Clearance of infused human RBCs from peripheral blood of RGSKI mice after blocking macrophage receptors (FIG. 3); assay type: in vivo; conditions: RGSKI mice treated one hour before human RBC infusion, D-4F 10 mg/mouse, control PBS, peripheral blood by FACS
Method: D-4F blocks several scavenger receptors. RGSKI mice were treated with different antibodies or inhibitors to block various macrophage receptors. One hour after treatment, mice were infused with human RBCs and peripheral blood was collected at indicated time points. Anti-Dectin: 50 ug/mouse; Anti-CD169: 50 ug/mouse; Anti-CD169 clone 3D6: 100 ug/mice; Anti-Mannose receptor: 50 ug/mouse; D-4F: 10 mg/mouse; Asialofetuin: 10 mg/mouse; Control: PBS.
First, an experiment was conducted to examine the clearance of human red blood cells in mouse peripheral blood. Human and mouse red blood cells were pre-labeled with CFSE or violet dye, respectively, and then were transfused into RGSKI mice by retro-orbital injection. Peripheral blood was collected 5 minutes after blood infusion and the frequency of infused mouse or human RBCs was determined by FACS. It was observed that the frequency of infused human RBCs decreased more rapidly than mouse RBCs (FIG. 1B).
Experiments were then performed to evaluate the role of the scavenger receptor in RBC clearance. D-4F is an apolipoprotein A-I mimetic peptide and a general scavenger receptor inhibitor. D-4F is an 18 D-amino acid peptide (Ac-D-W-L-K-A-F-Y-D-K-V-A-E-K-L-K-E-A-F—NH2; SEQ ID NO: 2). […] Other pathways which might involve in the destruction of human RBCs in the periphery were also tested.

Molecule | percent of remaining RBCs in the periphery after human RBC infusion [1] | cholesterol efflux, inflammation and atherosclerosis [2] | protection of infused human RBCs in the periphery [3] | protection of infused human RBCs in the periphery ([3]; listed as D4-F)
CCCCCCC1CCCC1=NNC(N)=S (stereo not shown) [BLT-1, 2-Hexyl-1-cyclopentanone thiosemicarbazone] | can protect infused human RBCs in the mouse system; also recorded: increases the percent of remaining RBCs in the periphery | – | – | –
Ac-D-W-L-K-A-F-Y-D-K-V-A-E-K-L-K-E-A-F—NH2 (DWLKAFYDKVAEKLKEAF; HELM PEPTIDE1{[ac].[dD].[dW].[dL].[dK].[dA].[dF].[dY].[dD].[dK].[dV].[dA].[dE].[dK].[dL].[dK].[dE].[dA].[dF].[am]}$$$$V2.0; SMILES CC(=O)N[C@H](CC(=O)O)C(=O)N[C@H](Cc1c[nH]c2ccccc12)C(=O)N[C@H](CC(C)C)C(=O)N[C@H](CCCCN)C(=O)N[C@H](C)C(=O)N[C@H](Cc1ccccc1)C(=O)N[C@H](Cc1ccc(O)cc1)C(=O)N[C@H](CC(=O)O)C(=O)N[C@H](CCCCN)C(=O)N[C@@H](C(=O)N[C@H](C)C(=O)N[C@H](CCC(=O)O)C(=O)N[C@H](CCCCN)C(=O)N[C@H](CC(C)C)C(=O)N[C@H](CCCCN)C(=O)N[C@H](CCC(=O)O)C(=O)N[C@H](C)C(=O)N[C@H](Cc1ccccc1)C(N)=O)C(C)C) [D-4F] | – | increase cholesterol efflux and reduce inflammation and atherosclerosis | blocks in vivo destruction of human RBCs | protected infused human RBCs in the periphery
